Data published in US5736510A, “Antibiotics 10381v, w, x,y, z1, z2, pre-b and t” (priority 1996, dated 1998).
Where two headings read alike, the source gives them in different places.

How the values were obtained:
Assay type in all cases: cell-based
F. necrophorum = details: for M.I.C.: Table III, mass basis, no correction for purity; for Minimal Inhibitory Concentration (bioactivity data): Table IV (separate study)
S. hyodysenteriae = tested on: S. hyodysenteriae; parameters: unit not given here; details: Table IV (separate study)
Protocol: (§1) The assay measures the ability of a compound to inhibit the growth of certain types of anaerobic bacteria which normally inhabit the gut of poultry, swine or cattle.
(§2) Two mg/ml solutions of the drugs to be tested are made in 10% v/v ethanol/water. This stock is then diluted to one mg per ml and then further diluted through a series of ten-two fold dilutions. At each concentration an aliquot is placed in a sterile petri plate. Nine volumes of molten agar are then added to each plate, mixed and allowed to harden at room temperature. These plates are then transferred to a Coy chamber and allowed to dry and equilibrate with the oxygen free atmosphere.
(§3) Organisms used for MIC testing are inoculated into broth media, and incubated 18-24 h at 39° C. prior to use. The cultures are then diluted to equal the turbidity of a 0.5 MacFarland barium sulfate standard, except for the porcine isolates P108-3C1, P105-1C3 and P105-1C4 which are diluted 1:1. All inoculations and dilutions are performed in the anaerobic chamber using broth media and syringe transfer through the butyl robber stoppers.
(§4) Freshly prepared and diluted cultures are loaded into the wells of a Steers replicator device. This apparatus can dispense ca 10 μl of each of 32 cultures onto the surface of the preincubated agar plates. One hour after the inoculation, the inoculum will have been absorbed and the plates are inverted and incubated at 38°-39° C. for 48 h. Plates are then removed from the chamber and the MIC for the test compounds determined. MIC's are reported as the lowest concentration of a compound which prevented detectable growth of a test organism on the agar plates. […] Thus, each set of test plates yields individual MIC values for each of the 32 test organisms.

P. ruminicola = details: strain 118B; for Minimal Inhibitory Concentration (bioactivity data): Table IV (separate study)
C. perfringens = tested on: C. perfringens; parameters: Minimal Inhibitory Concentration (bioactivity data): unit not given here; details: for M.I.C.: Table III, mass basis, no correction for purity; for Minimal Inhibitory Concentration (bioactivity data): Table IV (separate study)
[1] = tested on: anaerobic bacteria which normally inhabit the gut of poultry, swine or cattle; assay: in vitro MIC assay, overall comparison of components across the test organisms; details: conclusion from Tables III and IV
Protocol: as §1, §2, §3, §4

E. ruminantium = details: strain GA195; Table III; mass basis, no correction for purity
R. flavefaciens = details: for M.I.C.: Table III, mass basis, no correction for purity; for Minimal Inhibitory Concentration (bioactivity data): Table IV (separate study)
R. amylophilus = details: strain H18; for Minimal Inhibitory Concentration (bioactivity data): Table IV (separate study)
B. fibrisolvens = details: for M.I.C.: Table III, mass basis, no correction for purity; for Minimal Inhibitory Concentration (bioactivity data): Table IV (separate study)
S. faecalis = details: for M.I.C.: Table III, mass basis, no correction for purity; for Minimal Inhibitory Concentration (bioactivity data): Table IV (separate study)
S. ruminantium = details: for M.I.C.: Table III, mass basis, no correction for purity; for Minimal Inhibitory Concentration (bioactivity data): Table IV (separate study)
M. elsdenii = details: strain B159; for Minimal Inhibitory Concentration (bioactivity data): Table IV (separate study)
S. bovis = details: strain JB1; for Minimal Inhibitory Concentration (bioactivity data): Table IV (separate study)
B. fragilis = details: strain UC9370; for Minimal Inhibitory Concentration (bioactivity data): Table IV (separate study)
E. lentum = details: strain L-34; Table IV (separate study)
B. thetaiotaomicron = details: strain UC9014; for Minimal Inhibitory Concentration (bioactivity data): Table IV (separate study)
Protocol: as §1, §2, §3, §4

L. multiparus = details: strain 40; for Minimal Inhibitory Concentration (bioactivity data): Table IV (separate study)
[2] = Table III, mass basis, no correction for purity

## C=C(NC(=O)C(=C)NC(=O)C(=C)NC(=O)c1ccc2c(n1)-c1coc(n1)C(=C)NC(=O)C(=C)NC(=O)c1nc(oc1C)/C(=C/C)NC(=O)c1csc(n1)C(OC)NC(=O)c1nc(oc1C)/C(=C/C(C)O)NC(=O)[C@H]([C@@H](C)O)NC(=O)c1csc-2n1)C(N)=O (stereo partly shown) [Antibiotic 10381b, sulfomycin I, reference compound]
F. necrophorum; strain FN4070
  M.I.C.: 50.0 µg/mL
  Minimal Inhibitory Concentration (bioactivity data): 100
F. necrophorum; strain FN5052
  M.I.C.: 100.0 µg/mL
  Minimal Inhibitory Concentration (bioactivity data): 100
S. hyodysenteriae; strain 16-4
  Minimal Inhibitory Concentration (bioactivity data): > 100
S. hyodysenteriae; strain B204
  Minimal Inhibitory Concentration (bioactivity data): > 100
P. ruminicola; [2]
  M.I.C.: < 0.2 µg/mL
P. ruminicola
  Minimal Inhibitory Concentration (bioactivity data): < 0.2
C. perfringens; strain 71A02
  M.I.C.: 1.6 µg/mL
  Minimal Inhibitory Concentration (bioactivity data): < 0.2
C. perfringens; strain A82-1
  M.I.C.: 3.1 µg/mL
  Minimal Inhibitory Concentration (bioactivity data): 12.5
C. perfringens; strain A83-3
  M.I.C.: 3.1 µg/mL
  Minimal Inhibitory Concentration (bioactivity data): < 0.2
C. perfringens; strain A83-RKP
  M.I.C.: 0.8 µg/mL
  Minimal Inhibitory Concentration (bioactivity data): 0.8
C. perfringens; strain CCS1-11
  M.I.C.: 6.3 µg/mL
  Minimal Inhibitory Concentration (bioactivity data): < 0.2
C. perfringens; strain CCS2-09
  M.I.C.: 0.8 µg/mL
  Minimal Inhibitory Concentration (bioactivity data): 0.8
C. perfringens; strain P1051C3
  M.I.C.: 50.0 µg/mL
  Minimal Inhibitory Concentration (bioactivity data): 12.5
C. perfringens; strain P1083C1
  M.I.C.: 0.4 µg/mL
  Minimal Inhibitory Concentration (bioactivity data): 1.6
C. perfringens; strain RF1B04
  M.I.C.: 0.4 µg/mL
  Minimal Inhibitory Concentration (bioactivity data): < 0.2
C. perfringens; strain UC9452
  M.I.C.: 3.1 µg/mL
  Minimal Inhibitory Concentration (bioactivity data): 1.6
[1]
  in vitro activity ranking of the individual components: second most active
E. ruminantium
  M.I.C.: 0.4 µg/mL
R. flavefaciens; strain C94
  M.I.C.: 0.8 µg/mL
  Minimal Inhibitory Concentration (bioactivity data): 0.8
R. flavefaciens; strain FD1
  M.I.C.: 1.6 µg/mL
  Minimal Inhibitory Concentration (bioactivity data): 1.6
R. amylophilus; [2]
  M.I.C.: > 100.0 µg/mL
R. amylophilus
  Minimal Inhibitory Concentration (bioactivity data): 1.6
B. fibrisolvens; strain 49
  M.I.C.: 6.3 µg/mL
  Minimal Inhibitory Concentration (bioactivity data): 1.6
B. fibrisolvens; strain D1
  M.I.C.: 0.8 µg/mL
  Minimal Inhibitory Concentration (bioactivity data): 0.8
S. faecalis; strain 71A01
  M.I.C.: 25.0 µg/mL
  Minimal Inhibitory Concentration (bioactivity data): 12.5
S. faecalis; strain CCS1-03
  M.I.C.: 12.5 µg/mL
  Minimal Inhibitory Concentration (bioactivity data): 6.3
S. faecalis; strain P1051C4
  M.I.C.: 12.5 µg/mL
  Minimal Inhibitory Concentration (bioactivity data): 3.1
S. ruminantium; strain GA31
  M.I.C.: 100.0 µg/mL
  Minimal Inhibitory Concentration (bioactivity data): 0.8
S. ruminantium; strain GA192
  M.I.C.: > 100.0 µg/mL
  Minimal Inhibitory Concentration (bioactivity data): 1.6
M. elsdenii; [2]
  M.I.C.: > 100.0 µg/mL
M. elsdenii
  Minimal Inhibitory Concentration (bioactivity data): > 100
S. bovis; [2]
  M.I.C.: 3.1 µg/mL
S. bovis
  Minimal Inhibitory Concentration (bioactivity data): 0.8
B. fragilis; [2]
  M.I.C.: 25.0 µg/mL
B. fragilis
  Minimal Inhibitory Concentration (bioactivity data): 50.0
E. lentum
  Minimal Inhibitory Concentration (bioactivity data): < 0.2
B. thetaiotaomicron; [2]
  M.I.C.: 12.5 µg/mL
B. thetaiotaomicron
  Minimal Inhibitory Concentration (bioactivity data): 25.0
L. multiparus; [2]
  M.I.C.: 1.6 µg/mL
L. multiparus
  Minimal Inhibitory Concentration (bioactivity data): 1.6

## C=C(NC(=O)C(=C)NC(=O)C(=C)NC(=O)c1ccc2c(n1)-c1coc(n1)C(=C)NC(=O)C(=C)NC(=O)c1nc(oc1C)C(=CC)NC(=O)c1csc(n1)CNC(=O)c1nc(oc1C)C(=CC(C)O)NC(=O)C(C(C)O)NC(=O)c1csc-2n1)C(N)=O (stereo not shown) [Antibiotic 10381pre-b]
F. necrophorum; strain FN4070
  Minimal Inhibitory Concentration (bioactivity data): > 100
F. necrophorum; strain FN5052
  Minimal Inhibitory Concentration (bioactivity data): > 100
S. hyodysenteriae; strain 16-4
  Minimal Inhibitory Concentration (bioactivity data): > 100
S. hyodysenteriae; strain B204
  Minimal Inhibitory Concentration (bioactivity data): > 100
P. ruminicola
  Minimal Inhibitory Concentration (bioactivity data): < 0.2
C. perfringens; strain A82-1
  Minimal Inhibitory Concentration (bioactivity data): > 100
C. perfringens; strain A83-3
  Minimal Inhibitory Concentration (bioactivity data): 1.6
C. perfringens; strain A83-RKP
  Minimal Inhibitory Concentration (bioactivity data): 1.6
C. perfringens; strain CCS2-09
  Minimal Inhibitory Concentration (bioactivity data): 50.0
C. perfringens; strain P1051C3
  Minimal Inhibitory Concentration (bioactivity data): > 100
C. perfringens; strain P1083C1
  Minimal Inhibitory Concentration (bioactivity data): 25.0
C. perfringens; strain RF1B04
  Minimal Inhibitory Concentration (bioactivity data): 1.6
C. perfringens; strain UC9452
  Minimal Inhibitory Concentration (bioactivity data): 25.0
[1]
  in vitro activity ranking of the individual components: considerably less active
R. flavefaciens; strain C94
  Minimal Inhibitory Concentration (bioactivity data): 25.0
R. flavefaciens; strain FD1
  Minimal Inhibitory Concentration (bioactivity data): 25.0
R. amylophilus
  Minimal Inhibitory Concentration (bioactivity data): > 100
B. fibrisolvens; strain 49
  Minimal Inhibitory Concentration (bioactivity data): 50.0
B. fibrisolvens; strain D1
  Minimal Inhibitory Concentration (bioactivity data): 12.5
S. faecalis; strain 71A01
  Minimal Inhibitory Concentration (bioactivity data): > 100
S. faecalis; strain CCS1-03
  Minimal Inhibitory Concentration (bioactivity data): > 100
S. faecalis; strain P1051C4
  Minimal Inhibitory Concentration (bioactivity data): > 100
S. ruminantium; strain GA31
  Minimal Inhibitory Concentration (bioactivity data): 50.0
S. ruminantium; strain GA192
  Minimal Inhibitory Concentration (bioactivity data): 6.3
M. elsdenii
  Minimal Inhibitory Concentration (bioactivity data): > 100
S. bovis
  Minimal Inhibitory Concentration (bioactivity data): 50.0
B. fragilis
  Minimal Inhibitory Concentration (bioactivity data): > 100
E. lentum
  Minimal Inhibitory Concentration (bioactivity data): < 0.2
B. thetaiotaomicron
  Minimal Inhibitory Concentration (bioactivity data): > 100
L. multiparus
  Minimal Inhibitory Concentration (bioactivity data): > 100
